Assay results as given in patent publication US20230158025A1 (UNIVERSITY OF UTAH RESEARCH FOUNDATION, priority 2020, published 2023).
Read-outs that look alike come from different tables or passages of the source.

What was measured:
[1] = aqueous kinetic solubility
recombinant mouse GALK1 = recombinant mouse GALK1 (Mus musculus, UniProt Q9R0N0); assay: mGALK1 biochemical activity assay (Kinase-Glo Plus, ATP depletion)
Summary of the method: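 Recombinant GALK1 (5 nM) with 100 μM galactose; GALK1 turnover read as ATP depletion by Kinase-Glo Plus luminescence. Reaction ran 1 h at room temperature before detection reagent was added.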

[2] = rat microsomal stability (RLM); conditions: for Metab. Stabil. (m): microsomal half-life; for half-life: rat, rat liver microsomes
PAMPA permeability = conditions: for Papp: PAMPA, ADME P: PAMPA permeability (class), Tables 17-19, class probably colour-coded, colour lost
hGALK1m = molecular target: T1, hGALK1m (Homo sapiens, UniProt P51570, E253A/K252A); assay: in vitro hGALK1 activity assay of the structure-based optimisation (Example 12, Tables 17-20); assay type: biochemical; conditions: for Emax: Tables 18-19, read-out: Max Response (%)
T1 construct: made in house; host or cells: E. coli HMS174

recombinant human GALK1 = recombinant human GALK1 (Homo sapiens, UniProt P51570); assay: hGALK1 biochemical activity assay (Kinase-Glo Plus, ATP depletion)
Summary of the method: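 Turnover is measured as ATP depletion by Kinase-Glo Plus luminescence after a 1 h room-temperature reaction. Compounds span 11 concentrations, 57.4 μM–0.97 nM, in final 20 mM HEPES pH 8.0 with 5 mM MgCl2. The substrate solution held 35 μM ATP; the added solution held 5 nM human or mouse GALK1 and 100 μM galactose.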

[3] = Tables 2-15, 35 μM ATP, 100 μM galactose, 1 h, bracketed figure after some values is undefined and not reported, read-out: mGALK IC50
[4] = recombinant mouse GALK1, Kinase-Glo Plus ATP depletion, read-out: mGALK
[5] = Tables 18-19 and text of Example 12
[6] = Tables 2-15, 35 μM ATP, 100 μM galactose, 1 h, bracketed figure after some values (e.g. −1.2) is undefined and not reported, read-out: hGALK IC50
[7] = recombinant human GALK1, Kinase-Glo Plus ATP depletion, read-out: hGALK
[8] = Tables 2-15, 35 μM ATP, 100 μM galactose, 1 h, bracketed figure after some values is undefined and not reported
[9] = recombinant mouse GALK1, Kinase-Glo Plus ATP depletion
[10] = Tables 18-20 and text of Example 12

T1 sequence (P51570 whole entry K252A/E253A): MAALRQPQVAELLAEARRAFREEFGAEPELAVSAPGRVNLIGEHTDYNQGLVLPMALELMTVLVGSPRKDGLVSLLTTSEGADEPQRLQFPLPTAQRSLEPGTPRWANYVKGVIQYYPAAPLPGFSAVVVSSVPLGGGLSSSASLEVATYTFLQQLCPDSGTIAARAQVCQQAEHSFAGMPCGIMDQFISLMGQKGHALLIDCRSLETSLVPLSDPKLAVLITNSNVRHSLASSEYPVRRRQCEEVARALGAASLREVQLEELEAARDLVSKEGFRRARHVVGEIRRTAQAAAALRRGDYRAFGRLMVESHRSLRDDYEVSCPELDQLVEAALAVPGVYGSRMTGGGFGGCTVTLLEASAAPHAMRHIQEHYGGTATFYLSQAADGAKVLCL
Sequence of recombinant mouse GALK1 (Q9R0N0 whole entry): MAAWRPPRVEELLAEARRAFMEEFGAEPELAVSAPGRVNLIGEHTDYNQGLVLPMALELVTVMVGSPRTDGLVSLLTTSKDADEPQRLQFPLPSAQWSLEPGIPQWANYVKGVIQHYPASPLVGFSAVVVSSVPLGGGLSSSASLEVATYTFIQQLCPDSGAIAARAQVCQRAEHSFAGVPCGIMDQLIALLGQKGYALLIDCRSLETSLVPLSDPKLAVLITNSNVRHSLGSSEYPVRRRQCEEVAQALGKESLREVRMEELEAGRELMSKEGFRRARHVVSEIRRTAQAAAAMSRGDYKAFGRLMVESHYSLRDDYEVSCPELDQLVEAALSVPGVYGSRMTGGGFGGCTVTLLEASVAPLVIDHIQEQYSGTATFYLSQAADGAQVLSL
Sequence of recombinant human GALK1 (P51570 whole entry): as the sequence (P51570 whole entry K252A/E253A) above, with A252K, A253E counted along it

Structure (SMILES)	Sol. [1]	IC50 (recombinant mouse GALK1; [3])	IC50 (recombinant mouse GALK1; [4])	Metab. Stabil. (m) [2]	half-life [2]	Perm. (1 × 10^−6 cm/sec) (PAMPA permeability)	Papp (PAMPA permeability)	change of potency versus parent compound (in words) (hGALK1m)	Emax (hGALK1m)	IC50 (hGALK1m; [5])	IC50 (recombinant human GALK1; [6])	IC50 (recombinant human GALK1; [7])	mGALK IC50 (recombinant mouse GALK1; [8])	mGALK (μM) (recombinant mouse GALK1; [9])	hGALK IC50 (recombinant human GALK1; Tables 2-15, 35 μM ATP, 100 μM galactose, 1 h, bracketed figure after some values (e.g. −1.2) is undefined and not reported)	hGALK (μM) (recombinant human GALK1; recombinant human GALK1, Kinase-Glo Plus ATP depletion)	fold decrease of potency versus parent compound (hGALK1m; loss of potency relative to the unsubstituted parent)	IC50 (hGALK1m; [10])
CC1=C(C(=O)Nc2cc(C(=O)O)ccn2)C(c2ccccc2Cl)N=C(Nc2nc3cccc(Cl)c3o2)N1 (stereo not shown) [Compound 17, 2-(2-((7-chlorobenzo[d]oxazol-2-yl)amino)-4-(2-chlorophenyl)-6-methyl-1,4-dihydropyrimidine-5-carboxamido)isonicotinic acid]	57.5 µg/mL	9.68 µM	9.68 µM	>30 m	< 10 min	<1 1 × 10^−6 cm/sec	< 10 ×10⁻⁶ cm/s	did not change the potency	100%	1 µM	1.93 µM							
CC1=C(C(=O)Nc2cc(C(=O)O)ccn2)C(c2ccccc2Cl)N=C(Nc2nc3c(C)cccc3o2)N1 (stereo not shown) [Compound 18, 2-(4-(2-chlorophenyl)-6-methyl-2-((4-methylbenzo[d]oxazol-2-yl)amino)-1,4-dihydropyrimidine-5-carboxamido)isonicotinic acid]	3.5 µg/mL	17.2 µM	17.2 µM	>30 m	< 10 min	<1.3 1 × 10^−6 cm/sec	< 10 ×10⁻⁶ cm/s		100%	5.5 µM		9.68 µM						
CC1=C(C(=O)Nc2cc(C(=O)O)ccn2)C(c2ccccc2Cl)N=C(Nc2nc3cccc(OC(F)(F)F)c3o2)N1 (stereo not shown) [Compound 21, 2-(4-(2-chlorophenyl)-6-methyl-2-((7-(trifluoromethoxy)benzo[d]oxazol-2-yl)amino)-1,4-dihydropyrimidine-5-carboxamido)isonicotinic acid]	47.8 µg/mL			>30 m	< 10 min		< 10 ×10⁻⁶ cm/s	greatly compromised the potencies	88%	> 15 µM			inactive	in- active	inactive	in- active		
COc1cccc2nc(NC3=NC(c4ccccc4Cl)C(C(=O)Nc4cc(C(=O)O)ccn4)=C(C)N3)oc12 (stereo not shown) [Compound 22, 2-(4-(2-chlorophenyl)-2-((7-methoxybenzo[d]oxazol-2-yl)amino)-6-methyl-1,4-dihydropyrimidine-5-carboxamido)isonicotinic acid]	65.7 µg/mL			>30 m	< 10 min	<1 1 × 10^−6 cm/sec	< 10 ×10⁻⁶ cm/s	greatly compromised the potencies	80%	> 15 µM		21.7 µM	inactive	in- active			3.6 fold	
CC1=C(C(=O)Nc2cc(C(=O)O)ccn2)C(c2ccc(F)cc2Cl)N=C(Nc2nc3ccc(F)cc3o2)N1 (stereo not shown) [Compound 45, 2-(4-(2-chloro-4-fluorophenyl)-2-((6-fluorobenzo[d]oxazol-2-yl)amino)-6-methyl-1,4-dihydropyrimidine-5-carboxamido)isonicotinic acid]	40.6 µg/mL	4.32 µM	4.32 µM	>30 m	< 10 min	<1 1 × 10^−6 cm/sec	< 10 ×10⁻⁶ cm/s	little effect on the potency	100%			0.86 µM						0.258 µM
CC1=C(C(=O)Nc2cc(C(=O)O)ccn2)C(c2ccc(Cl)cc2Cl)N=C(Nc2nc3ccc(F)cc3o2)N1 (stereo not shown) [Compound 47, 2-(4-(2,4-dichlorophenyl)-2-((6-fluorobenzo[d]oxazol-2-yl)amino)-6-methyl-1,4-dihydropyrimidine-5-carboxamido)isonicotinic acid]	<1 µg/mL	3.85 µM	3.85 µM	>30 m	< 10 min	<1 1 × 10^−6 cm/sec	< 10 ×10⁻⁶ cm/s	little effect on the potency	85%			1.09 µM						0.345 µM
CC1=C(C(=O)Nc2cc(C(=O)O)ccn2)C(c2cccc(Cl)c2Cl)N=C(Nc2nc3ccc(F)cc3o2)N1 (stereo not shown) [Compound 49, 2-(4-(2,3-dichlorophenyl)-2-((6-fluorobenzo[d]oxazol-2-yl)amino)-6-methyl-1,4-dihydropyrimidine-5-carboxamido)isonicotinic acid]	55.5 µg/mL	21.7 µM	21.7 µM	>30 m	< 10 min		< 10 ×10⁻⁶ cm/s	compromised the potency	100%	3.6 µM	8.63 µM	8.63 µM						
CC1=C(C(=O)Nc2cc(C(=O)O)ccn2)C(c2cccc(C(F)(F)F)c2Cl)N=C(Nc2nc3ccc(F)cc3o2)N1 (stereo not shown) [Compound 51, 2-(4-(2-chloro-3-(trifluoromethyl)phenyl)-2-((6-fluorobenzo[d]oxazol-2-yl)amino)-6-methyl-1,4-dihydropyrimidine-5-carboxamido)isonicotinic acid]	70.1 µg/mL	27.3 µM	27.3 µM	>30 m	< 10 min		< 10 ×10⁻⁶ cm/s	compromised the potency	97%	2.4 µM	19.3 µM	19.3 µM						
COc1cccc(C2N=C(Nc3nc4ccc(F)cc4o3)NC(C)=C2C(=O)Nc2cc(C(=O)O)ccn2)c1Cl (stereo not shown) [Compound 52, 2-(4-(2-chloro-3-methoxyphenyl)-2-((6-fluorobenzo[d]oxazol-2-yl)amino)-6-methyl-1,4-dihydropyrimidine-5-carboxamido)isonicotinic acid]	>81 µg/mL	19.3 µM	19.3 µM	>30 m	< 10 min	<1 1 × 10^−6 cm/sec	< 10 ×10⁻⁶ cm/s		100%	5.4 µM	6.85 µM	6.85 µM						
CC1=C(C(=O)Nc2cc(C(=O)O)ccn2)C(c2ccccc2Br)N=C(Nc2nc3ccc(F)cc3o2)N1 (stereo not shown) [Compound 75, 2-(4-(2-bromophenyl)-2-((6-fluorobenzo[d]oxazol-2-yl)amino)-6-methyl-1,4-dihydropyrimidine-5-carboxamido)isonicotinic acid]	36.0 µg/mL	3.85 µM	3.85 µM	>30 m	< 10 min		< 10 ×10⁻⁶ cm/s	little impact on the potency	100%		0.54 µM							0.235 µM
